Test system: SR (NPM-ALK) cells
Assay: Growth inhibition IC50 in ALCL SR cells (CCK8/WST, 72 hours)
Format: cell-based
Conditions: SR cells, WST
[1] = Alectinib based ALK PROTAD compounds (Table 4)
[2] = 72 h, Brigatinib-based PROTAD molecules (Table 3)

Procedure: SR (NPM-ALK) and NCI-H2228 (EML4-ALK, V3) cells were purchased from ATCC. […] All Cells were cultured in RPMI1640 medium with 10% FBS and Penicillin-Streptomycin in 37° C. incubator with 5% CO2.
Cells were seeded at specific density in 96 well plates one day before treatment. […] Viable cells were measured via CCK8 reagent and IC50s were calculated via Prism Graphad. Experiments were repeated at least three times.

| SMILES | IC50 [1] | IC50 [2] |
| --- | --- | --- |
| CCc1cc2c(cc1N1CCC(N3CCN(C(=O)CNc4cccc5c4C(=O)N(C4CCC(=O)NC4=O)C5=O)CC3)CC1)C(C)(C)c1[nH]c3cc(C#N)ccc3c1C2=O (centres unmarked) [SIAIS184194, 8-(4-(4-((2-(2,6-dioxopiperidin-3-yl)-1,3-dioxoisoindolin-4-yl)glycyl)piperazin-1-yl)piperidin-1-yl)-9-ethyl-6,6-dimethyl-11-oxo-6,11-dihydro-5H-benzo[b]carbazole-3-carbonitrile] | 0.0242 µM |  |
| CCc1cc2c(cc1N1CCC(NC(=O)CNc3cccc4c3C(=O)N(C3CCC(=O)NC3=O)C4=O)CC1)C(C)(C)c1[nH]c3cc(C#N)ccc3c1C2=O (centres unmarked) [SIAIS219001, N-(1-(3-cyano-9-ethyl-6,6-dimethyl-11-oxo-6,11-dihydro-5H-benzo[b]carbazol-8-yl)piperidin-4-yl)-2-((2-(2,6-dioxopiperidin-3-yl)-1,3-dioxoisoindolin-4-yl)amino)acetamide] | 0.0213 µM |  |
| CCc1cc2c(cc1N1CCC(N3CCN(C(=O)CCCNc4cccc5c4C(=O)N(C4CCC(=O)NC4=O)C5=O)CC3)CC1)C(C)(C)c1[nH]c3cc(C#N)ccc3c1C2=O (centres unmarked) [SIAIS219003, 8-(4-(4-(4-((2-(2,6-dioxopiperidin-3-yl)-1,3-dioxoisoindolin-4-yl)amino)butanoyl)piperazin-1-yl)piperidin-1-yl)-9-ethyl-6,6-dimethyl-11-oxo-6,11-dihydro-5H-benzo[b]carbazole-3-carbonitrile] | 0.0218 µM |  |
| CCc1cc2c(cc1N1CCC(N3CCN(C(=O)CCCCCNc4cccc5c4C(=O)N(C4CCC(=O)NC4=O)C5=O)CC3)CC1)C(C)(C)c1[nH]c3cc(C#N)ccc3c1C2=O (centres unmarked) [SIAIS219004, 8-(4-(4-(6-((2-(2,6-dioxopiperidin-3-yl)-1,3-dioxoisoindolin-4-yl)amino)hexanoyl)piperazin-1-yl)piperidin-1-yl)-9-ethyl-6,6-dimethyl-11-oxo-6,11-dihydro-5H-benzo[b]carbazole-3-carbonitrile] | 0.0368 µM |  |
| CCc1cc2c(cc1N1CCC(NC(=O)CCCNc3cccc4c3C(=O)N(C3CCC(=O)NC3=O)C4=O)CC1)C(C)(C)c1[nH]c3cc(C#N)ccc3c1C2=O (centres unmarked) [SIAIS219010, N-(1-(3-cyano-9-ethyl-6,6-dimethyl-11-oxo-6,11-dihydro-5H-benzo[b]carbazol-8-yl)piperidin-4-yl)-4-((2-(2,6-dioxopiperidin-3-yl)-1,3-dioxoisoindolin-4-yl)amino)butanamide] | 0.0311 µM |  |
| CCc1cc2c(cc1N1CCC(NC(=O)CCCCCNc3cccc4c3C(=O)N(C3CCC(=O)NC3=O)C4=O)CC1)C(C)(C)c1[nH]c3cc(C#N)ccc3c1C2=O (centres unmarked) [SIAIS219011, N-(1-(3-cyano-9-ethyl-6,6-dimethyl-11-oxo-6,11-dihydro-5H-benzo[b]carbazol-8-yl)piperidin-4-yl)-6-((2-(2,6-dioxopiperidin-3-yl)-1,3-dioxoisoindolin-4-yl)amino)hexanamide] | 0.0499 µM |  |
| CCc1cc2c(cc1N1CCC(N3CCN(C(=O)CCCCC(=O)N[C@H](C(=O)N4C[C@H](O)C[C@H]4C(=O)NCc4ccc(-c5scnc5C)cc4)C(C)(C)C)CC3)CC1)C(C)(C)c1[nH]c3cc(C#N)ccc3c1C2=O [SIAIS219015, (2S,4R)-1-((S)-2-(6-(4-(1-(3-cyano-9-ethyl-6,6-dimethyl-11-oxo-6,11-dihydro-5H-benzo[b]carbazol-8-yl)piperidin-4-yl)piperazin-1-yl)-6-oxohexanamido)-3,3-dimethylbutanoyl)-4-hydroxy-N-(4-(4-methylthiazol-5-yl)benzyl)pyrrolidine-2-carboxamide] | 0.11 µM |  |
| CCc1cc2c(cc1N1CCC(N3CCN(C(=O)CCCCCCCCC(=O)N[C@H](C(=O)N4C[C@H](O)C[C@H]4C(=O)NCc4ccc(-c5scnc5C)cc4)C(C)(C)C)CC3)CC1)C(C)(C)c1[nH]c3cc(C#N)ccc3c1C2=O [SIAIS219016, (2S,4R)-1-((S)-2-(10-(4-(1-(3-cyano-9-ethyl-6,6-dimethyl-11-oxo-6,11-dihydro-5H-benzo[b]carbazol-8-yl)piperidin-4-yl)piperazin-1-yl)-10-oxodecanamido)-3,3-dimethylbutanoyl)-4-hydroxy-N-(4-(4-methylthiazol-5-yl)benzyl)pyrrolidine-2-carboxamide] | 0.0808 µM |  |
| CCc1cc2c(cc1N1CCC(N3CCN(C(=O)CCOCCOCCNc4cccc5c4C(=O)N(C4CCC(=O)NC4=O)C5=O)CC3)CC1)C(C)(C)c1[nH]c3cc(C#N)ccc3c1C2=O (centres unmarked) [SIAIS219018, 8-(4-(4-(3-(2-(2-((2-(2,6-dioxopiperidin-3-yl)-1,3-dioxoisoindolin-4-yl)amino)ethoxy)ethoxy)propanoyl)piperazin-1-yl)piperidin-1-yl)-9-ethyl-6,6-dimethyl-11-oxo-6,11-dihydro-5H-benzo[b]carbazole-3-carbonitrile] | 0.0133 µM |  |
| CCc1cc2c(cc1N1CCC(N3CCN(C(=O)CCOCCOCCOCCOCCNc4cccc5c4C(=O)N(C4CCC(=O)NC4=O)C5=O)CC3)CC1)C(C)(C)c1[nH]c3cc(C#N)ccc3c1C2=O (centres unmarked) [SIAIS219019, 8-(4-(4-(1-((2-(2,6-dioxopiperidin-3-yl)-1,3-dioxoisoindolin-4-yl)amino)-3,6,9,12-tetraoxapentadecan-15-oyl)piperazin-1-yl)piperidin-1-yl)-9-ethyl-6,6-dimethyl-11-oxo-6,11-dihydro-5H-benzo[b]carbazole-3-carbonitrile] | 0.0383 µM |  |
| CCc1cc2c(cc1N1CCC(NC(=O)CCCCC(=O)N[C@H](C(=O)N3C[C@H](O)C[C@H]3C(=O)NCc3ccc(-c4scnc4C)cc3)C(C)(C)C)CC1)C(C)(C)c1[nH]c3cc(C#N)ccc3c1C2=O [SIAIS219020, N1-(1-(3-cyano-9-ethyl-6,6-dimethyl-11-oxo-6,11-dihydro-5H-benzo[b]carbazol-8-yl)piperidin-4-yl)-N6-((S)-1-((2S,4R)-4-hydroxy-2-((4-(4-methylthiazol-5-yl)benzyl)carbamoyl)pyrrolidin-1-yl)-3,3-dimethyl-1-oxobutan-2-yl)adipamide] | 0.0303 µM |  |
| CCc1cc2c(cc1N1CCC(NC(=O)CCCCCCCCC(=O)N[C@H](C(=O)N3C[C@H](O)C[C@H]3C(=O)NCc3ccc(-c4scnc4C)cc3)C(C)(C)C)CC1)C(C)(C)c1[nH]c3cc(C#N)ccc3c1C2=O [SIAIS219021, N1-(1-(3-cyano-9-ethyl-6,6-dimethyl-11-oxo-6,11-dihydro-5H-benzo[b]carbazol-8-yl)piperidin-4-yl)-N10-((S)-1-((2S,4R)-4-hydroxy-2-((4-(4-methylthiazol-5-yl)benzyl)carbamoyl)pyrrolidin-1-yl)-3,3-dimethyl-1-oxobutan-2-yl)decanediamide] | 0.115 µM |  |
| CCc1cc2c(cc1N1CCC(NC(=O)CCOCCOCCNc3cccc4c3C(=O)N(C3CCC(=O)NC3=O)C4=O)CC1)C(C)(C)c1[nH]c3cc(C#N)ccc3c1C2=O (centres unmarked) [SIAIS219023] | 0.0293 µM |  |
| CCc1cc2c(cc1N1CCC(NC(=O)CCOCCOCCOCCOCCNc3cccc4c3C(=O)N(C3CCC(=O)NC3=O)C4=O)CC1)C(C)(C)c1[nH]c3cc(C#N)ccc3c1C2=O (centres unmarked) [SIAIS219024, N-(1-(3-cyano-9-ethyl-6,6-dimethyl-11-oxo-6,11-dihydro-5H-benzo[b]carbazol-8-yl)piperidin-4-yl)-1-((2-(2,6-dioxopiperidin-3-yl)-1,3-dioxoisoindolin-4-yl)amino)-3,6,9,12-tetraoxapentadecan-15-amide] | 0.0731 µM |  |
| COc1cc(N2CCC(N3CCN(C(=O)CCCCCCNc4cccc5c4CN(C4CCC(=O)NC4=O)C5=O)CC3)CC2)ccc1Nc1ncc(Cl)c(Nc2ccccc2P(C)(C)=O)n1 (centres unmarked) [SIAIS219124, 3-(4-((7-(4-(1-(4-((5-chloro-4-((2-(dimethylphosphoryl)phenyl)amino)pyrimidin-2-yl)amino)-3-methoxyphenyl)piperidin-4-yl)piperazin-1-yl)-7-oxoheptyl)amino)-1-oxoisoindolin-2-yl)piperidine-2,6-dione] |  | 0.00247 ± 0.0006 µM |
| COc1cc(N2CCC(NC(=O)CCCNc3cccc4c3CN(C3CCC(=O)NC3=O)C4=O)CC2)ccc1Nc1ncc(Cl)c(Nc2ccccc2P(C)(C)=O)n1 (centres unmarked) [SIAIS219128, N-(1-(4-((5-chloro-4-((2-(dimethylphosphoryl)phenyl)amino)pyrimidin-2-yl)amino)-3-methoxyphenyl)piperidin-4-yl)-4-((2-(2,6-dioxopiperidin-3-yl)-1-oxoisoindolin-4-yl)amino)butanamide] |  | 0.00667 ± 0.001 µM |
| COc1cc(N2CCC(NC(=O)CNc3cccc4c3CN(C3CCC(=O)NC3=O)C4=O)CC2)ccc1Nc1ncc(Cl)c(Nc2ccccc2P(C)(C)=O)n1 (centres unmarked) [SIAIS219151, N-(1-(4-((5-chloro-4-((2-(dimethylphosphoryl)phenyl)amino)pyrimidin-2-yl)amino)-3-methoxyphenyl)piperidin-4-yl)-2-((2-(2,6-dioxopiperidin-3-yl)-1-oxoisoindolin-4-yl)amino)acetamide] |  | 0.102 ± 0.0048 µM |
| COc1cc(N2CCC(NC(=O)CCCCNc3cccc4c3CN(C3CCC(=O)NC3=O)C4=O)CC2)ccc1Nc1ncc(Cl)c(Nc2ccccc2P(C)(C)=O)n1 (centres unmarked) [SIAIS219152, N-(1-(4-((5-chloro-4-((2-(dimethylphosphoryl)phenyl)amino)pyrimidin-2-yl)amino)-3-methoxyphenyl)piperidin-4-yl)-5-((2-(2,6-dioxopiperidin-3-yl)-1-oxoisoindolin-4-yl)amino)pentanamide] |  | 0.00378 ± 0.0004 µM |
| COc1cc(N2CCC(NC(=O)CCCCCNc3cccc4c3CN(C3CCC(=O)NC3=O)C4=O)CC2)ccc1Nc1ncc(Cl)c(Nc2ccccc2P(C)(C)=O)n1 (centres unmarked) [SIAIS219153, N-(1-(4-((5-chloro-4-((2-(dimethylphosphoryl)phenyl)amino)pyrimidin-2-yl)amino)-3-methoxyphenyl)piperidin-4-yl)-6-((2-(2,6-dioxopiperidin-3-yl)-1-oxoisoindolin-4-yl)amino)hexanamide] |  | 0.00312 ± 0.0002 µM |
| COc1cc(N2CCC(NC(=O)CCCCCCNc3cccc4c3CN(C3CCC(=O)NC3=O)C4=O)CC2)ccc1Nc1ncc(Cl)c(Nc2ccccc2P(C)(C)=O)n1 (centres unmarked) [SIAIS219154, N-(1-(4-((5-chloro-4-((2-(dimethylphosphoryl)phenyl)amino)pyrimidin-2-yl)amino)-3-methoxyphenyl)piperidin-4-yl)-7-((2-(2,6-dioxopiperidin-3-yl)-1-oxoisoindolin-4-yl)amino)heptanamide] |  | 0.0038 ± 0.0002 µM |

Reference: patent publication US11771709B2, “ALK protein degradation agent and anti-tumor application thereof” (ShanghaiTech University, priority 2017, dated 2023)
